Assays:
[1] = molecular target: T1, Alpha-2A adrenergic receptor (Homo sapiens, UniProt P08913); assay type: cell membranes, Sf9, Membrane; conditions: sf9; note: in other assays of this panel Not Active means under 50% inhibition at 10 µM
T1 sequence (P08913 whole entry): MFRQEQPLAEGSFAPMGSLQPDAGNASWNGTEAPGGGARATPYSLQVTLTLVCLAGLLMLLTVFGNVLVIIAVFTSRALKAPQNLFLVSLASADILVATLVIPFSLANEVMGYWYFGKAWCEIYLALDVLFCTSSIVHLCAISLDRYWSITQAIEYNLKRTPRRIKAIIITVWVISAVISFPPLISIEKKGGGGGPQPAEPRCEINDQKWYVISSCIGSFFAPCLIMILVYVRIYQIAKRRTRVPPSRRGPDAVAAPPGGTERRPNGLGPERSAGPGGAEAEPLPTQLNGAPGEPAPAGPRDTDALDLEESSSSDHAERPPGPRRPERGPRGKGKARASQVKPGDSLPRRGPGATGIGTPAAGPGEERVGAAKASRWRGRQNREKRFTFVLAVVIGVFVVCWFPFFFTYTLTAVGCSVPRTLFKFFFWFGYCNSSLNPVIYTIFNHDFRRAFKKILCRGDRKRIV

Calcitonin receptor = molecular target: T2, Calcitonin receptor (Homo sapiens, UniProt P30988); assay type: cell membranes, Membrane; conditions: t47d; note: in other assays of this panel Not Active means under 50% inhibition at 10 µM
T2 sequence (P30988 whole entry): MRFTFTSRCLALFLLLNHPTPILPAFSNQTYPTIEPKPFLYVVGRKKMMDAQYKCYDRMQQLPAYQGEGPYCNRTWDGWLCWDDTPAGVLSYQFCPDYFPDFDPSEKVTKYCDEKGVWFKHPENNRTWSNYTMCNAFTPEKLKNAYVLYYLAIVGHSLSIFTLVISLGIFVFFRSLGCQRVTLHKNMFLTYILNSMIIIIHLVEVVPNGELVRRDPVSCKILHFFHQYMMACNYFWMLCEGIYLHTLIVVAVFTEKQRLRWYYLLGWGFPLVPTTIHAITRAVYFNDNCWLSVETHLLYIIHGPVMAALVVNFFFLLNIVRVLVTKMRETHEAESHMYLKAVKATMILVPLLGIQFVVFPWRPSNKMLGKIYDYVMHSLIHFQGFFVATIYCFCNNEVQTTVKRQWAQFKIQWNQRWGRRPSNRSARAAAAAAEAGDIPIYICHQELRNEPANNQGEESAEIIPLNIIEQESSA

D(4) dopamine receptor = molecular target: T3, D(4) dopamine receptor (Homo sapiens, UniProt P21917); assay: DRUGMATRIX: Dopamine D4.2 radioligand binding (ligand: [3H] Spiperone); assay type: cell membranes, Membrane; conditions: cho-k1; Not Active = under 50% inhibition at 10 µM
T3 sequence (P21917 whole entry): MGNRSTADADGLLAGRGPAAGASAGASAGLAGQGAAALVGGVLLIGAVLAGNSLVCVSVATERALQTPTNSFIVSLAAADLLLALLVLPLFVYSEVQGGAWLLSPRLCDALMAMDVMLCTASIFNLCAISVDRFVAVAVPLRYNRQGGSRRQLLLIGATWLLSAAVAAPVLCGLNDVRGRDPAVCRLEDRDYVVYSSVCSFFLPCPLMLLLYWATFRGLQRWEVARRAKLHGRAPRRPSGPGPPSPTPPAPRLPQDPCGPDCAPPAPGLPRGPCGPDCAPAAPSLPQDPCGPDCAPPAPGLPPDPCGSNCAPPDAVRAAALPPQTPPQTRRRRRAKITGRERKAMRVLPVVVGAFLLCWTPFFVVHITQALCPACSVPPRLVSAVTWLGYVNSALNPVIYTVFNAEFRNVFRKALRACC

[2] = DRUGMATRIX: Phorbol Ester radioligand binding (ligand: [3H] PDBu); assay type: cell membranes, Mus musculus, ICR, Brain, Membrane; conditions: Not Active = under 50% inhibition at 10 µM
[3] = molecular target: T4, Receptor-type tyrosine-protein phosphatase C (Homo sapiens, UniProt P08575); set-up: species or system Escherichia coli;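 note: inhibition of CD45 enzyme activity measured using DiFMUP as substrate; in other assays of this panel Not Active means under 50% inhibition at 10 µM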
T4 sequence (P08575 whole entry): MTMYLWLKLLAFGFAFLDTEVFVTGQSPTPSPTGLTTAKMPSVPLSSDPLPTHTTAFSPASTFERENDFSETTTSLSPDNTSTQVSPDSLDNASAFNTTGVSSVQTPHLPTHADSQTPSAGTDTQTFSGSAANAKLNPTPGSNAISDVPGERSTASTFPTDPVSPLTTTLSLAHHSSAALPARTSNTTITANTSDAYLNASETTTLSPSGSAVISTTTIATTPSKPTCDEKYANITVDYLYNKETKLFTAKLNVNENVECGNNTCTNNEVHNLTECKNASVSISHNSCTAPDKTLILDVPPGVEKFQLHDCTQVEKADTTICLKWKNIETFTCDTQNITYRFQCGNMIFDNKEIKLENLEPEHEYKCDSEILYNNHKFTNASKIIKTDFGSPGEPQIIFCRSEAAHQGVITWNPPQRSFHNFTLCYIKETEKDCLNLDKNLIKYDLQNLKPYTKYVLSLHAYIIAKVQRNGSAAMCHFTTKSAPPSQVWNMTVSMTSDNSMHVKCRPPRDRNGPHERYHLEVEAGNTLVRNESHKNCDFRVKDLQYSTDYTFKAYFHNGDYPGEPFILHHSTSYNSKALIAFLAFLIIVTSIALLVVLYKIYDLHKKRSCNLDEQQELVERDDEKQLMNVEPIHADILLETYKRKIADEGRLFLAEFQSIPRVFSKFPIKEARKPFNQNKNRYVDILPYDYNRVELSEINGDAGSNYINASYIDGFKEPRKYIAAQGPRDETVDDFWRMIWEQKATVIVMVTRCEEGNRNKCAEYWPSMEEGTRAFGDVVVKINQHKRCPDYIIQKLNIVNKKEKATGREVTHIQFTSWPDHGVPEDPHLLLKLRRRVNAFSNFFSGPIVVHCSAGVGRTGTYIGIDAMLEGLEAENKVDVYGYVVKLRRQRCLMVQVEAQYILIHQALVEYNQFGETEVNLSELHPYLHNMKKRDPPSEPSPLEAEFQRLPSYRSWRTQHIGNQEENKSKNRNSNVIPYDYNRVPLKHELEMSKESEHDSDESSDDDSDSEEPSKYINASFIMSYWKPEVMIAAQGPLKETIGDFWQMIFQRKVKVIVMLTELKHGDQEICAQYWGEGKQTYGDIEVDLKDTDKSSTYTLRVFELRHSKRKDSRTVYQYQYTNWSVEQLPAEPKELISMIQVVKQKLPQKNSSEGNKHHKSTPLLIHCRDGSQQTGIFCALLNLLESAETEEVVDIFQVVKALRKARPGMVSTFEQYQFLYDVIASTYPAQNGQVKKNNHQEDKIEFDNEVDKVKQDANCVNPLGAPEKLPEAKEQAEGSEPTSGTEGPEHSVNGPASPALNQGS

C=C1CC[C@H](O)C/C1=C/C=C1\CCC[C@]2(C)[C@@H]([C@H](C)CCCC(C)C)CC[C@@H]12 [CHOLECALCIFEROL]
Not Active: IC50 [1] | IC50 (Calcitonin receptor) | IC50 (D(4) dopamine receptor) | IC50 [2] | Ki [2] | IC50 [3]

C[N+](C)(C)CCO.[Cl-] [CHOLINE CHLORIDE]
Not Active: IC50 [1] | IC50 (Calcitonin receptor) | IC50 (D(4) dopamine receptor) | IC50 [2] | Ki [2] | IC50 [3]

CCOC(=O)C(C)(C)Oc1ccc(Cl)cc1 [CLOFIBRATE]
Not Active: IC50 [1] | IC50 (Calcitonin receptor) | IC50 (D(4) dopamine receptor) | IC50 [2] | Ki [2] | IC50 [3]

CC(=O)OCC(=O)[C@@]1(O)CC[C@H]2[C@@H]3CCC4=CC(=O)CC[C@]4(C)[C@H]3C(=O)C[C@@]21C [CORTISONE ACETATE]
Not Active: IC50 [1] | IC50 (Calcitonin receptor) | IC50 (D(4) dopamine receptor) | IC50 [2] | Ki [2] | IC50 [3]

O=c1ccc2ccccc2o1 [COUMARIN]
Not Active: IC50 [1] | IC50 (Calcitonin receptor) | IC50 (D(4) dopamine receptor) | IC50 [2] | Ki [2] | IC50 [3]

C[C@@H]1C[C@@H]([C@H](O)CC2CC(=O)NC(=O)C2)C(=O)[C@@H](C)C1 [CYCLOHEXIMIDE]
Not Active: IC50 [1] | IC50 (Calcitonin receptor) | IC50 (D(4) dopamine receptor) | IC50 [2] | Ki [2] | IC50 [3]

C/C=C/C[C@@H](C)[C@@H](O)[C@H]1C(=O)N[C@@H](CC)C(=O)N(C)CC(=O)N(C)[C@@H](CC(C)C)C(=O)N[C@@H](C(C)C)C(=O)N(C)[C@@H](CC(C)C)C(=O)N[C@@H](C)C(=O)N[C@H](C)C(=O)N(C)[C@@H](CC(C)C)C(=O)N(C)[C@@H](CC(C)C)C(=O)N(C)[C@@H](C(C)C)C(=O)N1C [CYCLOSPORINE]
Not Active: IC50 [1] | IC50 (Calcitonin receptor) | IC50 (D(4) dopamine receptor) | IC50 [2] | Ki [2] | IC50 [3]

CN(C)/N=N/c1[nH]cnc1C(N)=O [DACARBAZINE]
Not Active: IC50 [1] | IC50 (Calcitonin receptor) | IC50 (D(4) dopamine receptor) | IC50 [2] | Ki [2] | IC50 [3]

COc1ccc2c(c1)[C@]13CCCC[C@@H]1[C@H](C2)N(C)CC3 [DEXTROMETHORPHAN]
Not Active: IC50 [1] | IC50 (Calcitonin receptor) | IC50 (D(4) dopamine receptor) | IC50 [2] | Ki [2] | IC50 [3]

CC(=O)Nc1c(I)c(NC(C)=O)c(I)c(C(=O)O)c1I [DIATRIZOIC ACID]
Not Active: IC50 [1] | IC50 (Calcitonin receptor) | IC50 (D(4) dopamine receptor) | IC50 [2] | Ki [2] | IC50 [3]

COP(=O)(OC)OC=C(Cl)Cl [DICHLORVOS]
Not Active: IC50 [1] | IC50 (Calcitonin receptor) | IC50 (D(4) dopamine receptor) | IC50 [2] | Ki [2] | IC50 [3]

O=C(O)Cc1ccccc1Nc1c(Cl)cccc1Cl [DICLOFENAC]
Not Active: IC50 [1] | IC50 (Calcitonin receptor) | IC50 (D(4) dopamine receptor) | IC50 [2] | Ki [2] | IC50 [3]

C[C@H]1O[C@@H](O[C@H]2[C@@H](O)C[C@H](O[C@H]3[C@@H](O)C[C@H](O[C@H]4CC[C@@]5(C)[C@H](CC[C@@H]6[C@@H]5CC[C@]5(C)[C@@H](C7=CC(=O)OC7)CC[C@]65O)C4)O[C@@H]3C)O[C@@H]2C)C[C@H](O)[C@@H]1O [DIGITOXIN]
Not Active: IC50 [1] | IC50 (Calcitonin receptor) | IC50 (D(4) dopamine receptor) | IC50 [2] | Ki [2] | IC50 [3]

CCN1CC(CCN2CCOCC2)C(c2ccccc2)(c2ccccc2)C1=O (stereo unspecified) [DOXAPRAM]
Not Active: IC50 [1] | IC50 (Calcitonin receptor) | IC50 (D(4) dopamine receptor) | IC50 [2] | Ki [2] | IC50 [3]

Cn1c(=O)c2c(ncn2CC2OCCO2)n(C)c1=O [DOXOFYLLINE]
Not Active: IC50 [1] | IC50 (Calcitonin receptor) | IC50 (D(4) dopamine receptor) | IC50 [2] | Ki [2] | IC50 [3]

COc1cccc2c1C(=O)c1c(O)c3c(c(O)c1C2=O)C[C@@](O)(C(=O)CO)C[C@@H]3O[C@H]1C[C@H](N)[C@H](O)[C@H](C)O1 [DOXORUBICIN]
Not Active: IC50 [1] | IC50 (Calcitonin receptor) | IC50 (D(4) dopamine receptor) | IC50 [2] | Ki [2] | IC50 [3]

COc1cccc2c1C(=O)c1c(O)c3c(c(O)c1C2=O)C[C@@](O)(C(=O)CO)C[C@@H]3O[C@H]1C[C@H](N)[C@@H](O)[C@H](C)O1 [EPIRUBICIN]
Not Active: IC50 [1] | IC50 (Calcitonin receptor) | IC50 (D(4) dopamine receptor) | IC50 [2] | Ki [2] | IC50 [3]

C[C@]12CC[C@@H]3c4ccc(OC(=O)c5ccccc5)cc4CC[C@H]3[C@@H]1CC[C@@H]2O [ESTRADIOL BENZOATE]
Not Active: IC50 [1] | IC50 (Calcitonin receptor) | IC50 (D(4) dopamine receptor) | IC50 [2] | Ki [2] | IC50 [3]

C[C@]12CC[C@@H]3c4ccc(O)cc4CC[C@H]3[C@@H]1CC[C@@H]2O [ESTRADIOL]
Not Active: IC50 [1] | IC50 (Calcitonin receptor) | IC50 (D(4) dopamine receptor) | IC50 [2] | Ki [2] | IC50 [3]

CC[C@@H](CO)NCCN[C@@H](CC)CO [ETHAMBUTOL]
Not Active: IC50 [1] | IC50 (Calcitonin receptor) | IC50 (D(4) dopamine receptor) | IC50 [2] | Ki [2] | IC50 [3]

CC1(C)O[C@@H]2C[C@H]3[C@@H]4C[C@H](F)C5=CC(=O)C=C[C@]5(C)[C@H]4[C@@H](O)C[C@]3(C)[C@]2(C(=O)CO)O1 [FLUNISOLIDE]
Not Active: IC50 [1] | IC50 (Calcitonin receptor) | IC50 (D(4) dopamine receptor) | IC50 [2] | Ki [2] | IC50 [3]

Reference: ChEMBL document CHEMBL1909046, “DrugMatrix in vitro pharmacology data”
